What was measured:
[1] = target: T1, Serine/threonine-protein kinase PLK4 (Homo sapiens, UniProt O00444); assay: Inhibition of recombinant human PLK4 incubated for 60 mins by Lanthascreen Eu kinase binding assay
T1 sequence (O00444 whole entry): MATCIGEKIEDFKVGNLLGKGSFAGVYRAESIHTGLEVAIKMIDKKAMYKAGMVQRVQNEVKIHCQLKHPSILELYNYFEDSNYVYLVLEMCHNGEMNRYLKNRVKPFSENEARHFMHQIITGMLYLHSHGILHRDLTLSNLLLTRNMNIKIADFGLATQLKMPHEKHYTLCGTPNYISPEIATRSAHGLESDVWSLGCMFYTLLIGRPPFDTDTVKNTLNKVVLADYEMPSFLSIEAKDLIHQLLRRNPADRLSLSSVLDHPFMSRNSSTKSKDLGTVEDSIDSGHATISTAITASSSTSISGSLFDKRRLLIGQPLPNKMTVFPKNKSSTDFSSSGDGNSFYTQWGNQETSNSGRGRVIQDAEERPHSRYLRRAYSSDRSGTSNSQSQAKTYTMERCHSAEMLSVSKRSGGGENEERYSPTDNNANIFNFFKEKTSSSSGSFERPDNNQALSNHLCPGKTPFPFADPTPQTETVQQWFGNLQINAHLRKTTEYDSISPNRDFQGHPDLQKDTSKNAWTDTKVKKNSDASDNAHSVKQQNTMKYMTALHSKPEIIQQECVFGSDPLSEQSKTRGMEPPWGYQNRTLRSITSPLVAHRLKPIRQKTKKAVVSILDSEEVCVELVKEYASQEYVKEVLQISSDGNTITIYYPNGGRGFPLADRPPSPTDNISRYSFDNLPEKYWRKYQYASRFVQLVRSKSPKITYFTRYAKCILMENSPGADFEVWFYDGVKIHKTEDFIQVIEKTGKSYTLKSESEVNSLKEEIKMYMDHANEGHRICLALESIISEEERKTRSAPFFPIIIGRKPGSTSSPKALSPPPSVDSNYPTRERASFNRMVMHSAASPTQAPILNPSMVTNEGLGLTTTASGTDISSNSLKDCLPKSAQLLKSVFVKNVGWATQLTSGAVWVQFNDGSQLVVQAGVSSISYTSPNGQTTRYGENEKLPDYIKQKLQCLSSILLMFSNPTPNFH

MDA-MB-231 = assay: Antiproliferative activity against human MDA-MB-231 cells assessed as cell growth inhibition incubated for 5 days by MTT assay; type: functional, cell-based; details: MDA-MB-231, 120 h
BT-474 = assay: Antiproliferative activity against human BT-474 cells assessed as cell growth inhibition incubated for 5 days by MTT assay; type: functional, cell-based; details: BT-474, 120 h
MCF7 = assay: Antiproliferative activity against human MCF7 cells assessed as cell growth inhibition incubated for 5 days by MTT assay; type: functional, cell-based; details: MCF7, 120 h
[2] = target: Serine/threonine-protein kinase PAK 4 (Homo sapiens, UniProt O96013); assay: Inhibition of PAK4 (unknown origin) incubated for 60 mins by time-resolved HTRF assay
Sequence of Serine/threonine-protein kinase PAK 4 (O96013 whole entry): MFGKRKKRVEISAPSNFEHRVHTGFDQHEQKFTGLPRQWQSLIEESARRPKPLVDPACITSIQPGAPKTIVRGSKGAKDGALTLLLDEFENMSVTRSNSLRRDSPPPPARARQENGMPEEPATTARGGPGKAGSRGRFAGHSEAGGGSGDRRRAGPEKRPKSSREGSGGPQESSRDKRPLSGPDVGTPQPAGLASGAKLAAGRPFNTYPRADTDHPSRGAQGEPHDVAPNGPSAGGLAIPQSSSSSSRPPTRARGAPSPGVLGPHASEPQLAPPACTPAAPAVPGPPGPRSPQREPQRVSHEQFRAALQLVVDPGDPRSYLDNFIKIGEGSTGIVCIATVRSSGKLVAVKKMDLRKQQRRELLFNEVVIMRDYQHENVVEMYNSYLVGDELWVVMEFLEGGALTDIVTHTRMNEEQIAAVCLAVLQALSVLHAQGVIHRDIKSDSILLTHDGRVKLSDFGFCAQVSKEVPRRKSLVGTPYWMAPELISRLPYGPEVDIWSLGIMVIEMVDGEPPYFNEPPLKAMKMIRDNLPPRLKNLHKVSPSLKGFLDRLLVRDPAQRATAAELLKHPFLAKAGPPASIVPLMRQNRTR

CYP2C9 = CYP2C9 (Homo sapiens, UniProt P11712); assay: Inhibition of CYP2C9 in human liver microsomes at 10 uM preincubated for 10 mins followed by addition of NADPH-regenerating system and measured after 15 mins by LC-MS/MS analysis relative to control; type: ADME, Microsome; details: time 25 min
Sequence of CYP2C9 (P11712 whole entry): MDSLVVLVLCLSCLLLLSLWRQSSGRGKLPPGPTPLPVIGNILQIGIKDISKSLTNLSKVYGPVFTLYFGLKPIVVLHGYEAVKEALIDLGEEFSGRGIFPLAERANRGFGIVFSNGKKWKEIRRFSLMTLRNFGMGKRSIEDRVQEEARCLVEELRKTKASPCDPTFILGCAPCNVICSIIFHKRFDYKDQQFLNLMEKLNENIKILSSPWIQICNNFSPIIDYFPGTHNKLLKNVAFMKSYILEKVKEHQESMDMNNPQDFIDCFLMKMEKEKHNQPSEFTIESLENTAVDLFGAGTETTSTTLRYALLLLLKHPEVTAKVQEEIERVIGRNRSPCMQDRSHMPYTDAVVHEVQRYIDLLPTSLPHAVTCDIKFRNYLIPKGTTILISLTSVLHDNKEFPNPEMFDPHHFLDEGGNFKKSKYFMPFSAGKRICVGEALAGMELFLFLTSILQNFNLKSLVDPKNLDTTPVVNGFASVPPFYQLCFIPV

CYP2D6 = CYP2D6 (Homo sapiens, UniProt P10635); assay: Inhibition of CYP2D6 in human liver microsomes at 10 uM preincubated for 10 mins followed by addition of NADPH-regenerating system and measured after 15 mins by LC-MS/MS analysis relative to control; type: ADME, Microsome; details: time 25 min
Sequence of CYP2D6 (P10635 whole entry): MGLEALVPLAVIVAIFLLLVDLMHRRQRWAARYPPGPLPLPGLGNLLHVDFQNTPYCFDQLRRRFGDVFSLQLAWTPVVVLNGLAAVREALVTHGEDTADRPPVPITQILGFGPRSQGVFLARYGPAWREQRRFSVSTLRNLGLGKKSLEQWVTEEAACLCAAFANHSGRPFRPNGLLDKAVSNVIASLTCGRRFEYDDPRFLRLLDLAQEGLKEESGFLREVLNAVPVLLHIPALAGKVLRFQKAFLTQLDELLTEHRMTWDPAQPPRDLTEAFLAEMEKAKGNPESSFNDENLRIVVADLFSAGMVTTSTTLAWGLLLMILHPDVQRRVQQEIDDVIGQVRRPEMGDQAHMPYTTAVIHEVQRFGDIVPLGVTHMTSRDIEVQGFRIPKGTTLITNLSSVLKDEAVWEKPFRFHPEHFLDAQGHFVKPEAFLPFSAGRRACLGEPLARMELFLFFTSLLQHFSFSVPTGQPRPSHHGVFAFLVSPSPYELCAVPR

Structure (SMILES) | IC50 [1] [nM] | IC50 (MDA-MB-231) [nM] | IC50 (BT-474) [nM] | IC50 (MCF7) [nM] | IC50 [2] [nM] | inhibition at 0.25 h, 10 µM (CYP2C9) [%] | inhibition at 0.25 h, 10 µM (CYP2D6) [%]
Cc1cc(Nc2nc(NCc3ccc(Cl)cc3)nc3c2cnn3CC(F)(F)F)n[nH]1 | 118 | – | – | – | – | – | –
Cc1cc(Nc2nc(NCc3ccc(Cl)cc3)nc3c2cnn3C2CCOCC2)n[nH]1 | 4 | 9420 | 18300 | 1550 | – | – | –
Cc1cnc(Nc2nc(NCc3ccc(F)cc3F)nc3c2cnn3C2CCOCC2)s1 | 20.7 | – | – | – | – | – | –
Cc1cc(Nc2nc(Cl)nc3[nH]ncc23)n[nH]1 | 489 | – | – | – | 5940 | – | –
Cc1cc(Nc2nc(NCc3cccc(F)c3)nc3[nH]ncc23)n[nH]1 | 14.6 | – | – | – | 458 | – | –
Cc1cc(Nc2nc(NCc3ccc(F)cc3F)nc3c2cnn3CC(C)(C)O)n[nH]1 | 2.7 | 2510 | 19400 | 160 | 655 | – | –
Cc1cc(Nc2nc(NCc3ccccc3Cl)nc3[nH]ncc23)n[nH]1 | 0.7 | 4210 | 7160 | 4130 | 668 | – | –
Cc1cc(Nc2nc(NC3CCNC3)nc3[nH]ncc23)n[nH]1 (centres undefined) | 454 | – | – | – | 1050 | – | –
Cc1cc(Nc2nc(Nc3ccccc3)nc3[nH]ncc23)n[nH]1 | 206 | – | – | – | 5900 | – | –
Cc1cc(Nc2nc(NCc3ccccc3F)nc3[nH]ncc23)n[nH]1 | 1 | 9850 | 13200 | 2310 | 389 | – | –
Cc1cc(Nc2nc(NCc3ccc(Cl)cc3)nc3c2cnn3CC(C)(C)O)n[nH]1 | 3.8 | 3980 | 16200 | 1940 | – | – | –
Cc1cc(Nc2nc(NCc3ccc(Cl)cc3)nc3c2cnn3C2CCCCC2)n[nH]1 | 47.9 | – | – | – | – | – | –
COc1c(Nc2cc(C)[nH]n2)nc(Sc2ccc(S(=O)(=O)Cc3cccc([N+](=O)[O-])c3F)cc2F)nc1N1CCOCC1 | – | 8690 | 10500 | 2270 | – | – | –
Fc1ccc(CNc2nc(Nc3cc(C4CC4)[nH]n3)c3cnn(C4CCOCC4)c3n2)c(F)c1 | 1.8 | 2560 | 7240 | 2480 | – | – | –
Cc1cc(Nc2nc(NCc3ccccc3Br)nc3[nH]ncc23)n[nH]1 | 8.7 | 3990 | 10100 | 14100 | 1090 | – | –
Cc1cc(Nc2nc(N3CCNCC3)nc3[nH]ncc23)n[nH]1 | 533 | – | – | – | 1500 | – | –
Cc1cc(Nc2nc(NC3CCNCC3)nc3[nH]ncc23)n[nH]1 | 484 | – | – | – | 273 | – | –
Nc1ccc(S(=O)(=O)Nc2ccnn2-c2ccccc2)cc1 [SULFAPHENAZOLE] | – | – | – | – | – | 81.4 | –
Cc1cc(Nc2nc(NCc3ccc(F)cc3F)nc3c2cnn3C(C)C)n[nH]1 | 1.1 | 5350 | 17300 | 4320 | – | – | –
Cc1cc(Nc2nc(NCc3ccc(Cl)cc3)nc3c2cnn3-c2ccc(F)cc2)n[nH]1 | 241 | – | – | – | – | – | –
Cc1cc(Nc2nc(NCc3ccc(F)cc3)nc3[nH]ncc23)n[nH]1 | 0.8 | 8410 | 8750 | 970 | 395 | – | –
Cc1cc(Nc2nc(NCc3ccc(Cl)cc3)nc3c2cnn3C(C)C)n[nH]1 | 3.7 | 4860 | 13000 | 2040 | – | – | –

Structure (SMILES) | IC50 [1] [nM] | IC50 (MDA-MB-231) [nM] | IC50 (BT-474) [nM] | IC50 (MCF7) [nM] | IC50 [2] [nM] | inhibition at 0.25 h, 10 µM (CYP2C9) [%] | inhibition at 0.25 h, 10 µM (CYP2D6) [%]
Cc1cc(Nc2nc(NCc3ccc(F)c(F)c3)nc3[nH]ncc23)n[nH]1 | 22.2 | – | – | – | – | – | –
Cc1cc(Nc2nc(NCc3ccc(Cl)cc3)nc3c2cnn3C)n[nH]1 | 20.2 | – | – | – | – | – | –
COc1ccc(CNc2nc(Nc3cc(C)[nH]n3)c3cn[nH]c3n2)cc1 | 6.5 | 1320 | 8230 | 3320 | – | – | –
Cc1cc(Nc2nc(NCc3c(F)cc(F)cc3F)nc3[nH]ncc23)n[nH]1 | 78.5 | – | – | – | – | – | –
Cc1cc(Nc2nc(NCc3ccc(F)cc3F)nc3c2cnn3C2CCNCC2)n[nH]1 | 0.7 | 1080 | 2970 | 410 | 231 | – | –
Cc1cc(Nc2nc(NCc3ccc(Br)cc3)nc3[nH]ncc23)n[nH]1 | 5.6 | 1860 | 4110 | 5340 | 1320 | – | –
CCc1cc(Nc2nc(NCc3ccc(F)cc3F)nc3c2cnn3C2CCOCC2)n[nH]1 | 0.7 | 2790 | 3060 | 1790 | – | – | –
Cc1cc(Nc2nc(NCc3cccc(Br)c3)nc3[nH]ncc23)n[nH]1 | 23.3 | – | – | – | 4340 | – | –
CC(C)(C)c1cc(Nc2nc(NCc3ccc(F)cc3F)nc3c2cnn3C2CCOCC2)n[nH]1 | 726 | – | – | – | – | – | –
Fc1ccc(CNc2nc(Nc3n[nH]c4ccccc34)c3cnn(C4CCOCC4)c3n2)c(F)c1 | 536 | – | – | – | – | – | –
Cc1cc(Nc2nc(NCc3ccc(F)cc3F)nc3[nH]ncc23)n[nH]1 | 0.1 | 2670 | 3220 | 670 | 96.1 | – | –
Cc1cc(Nc2nc(NCc3cccc(Cl)c3)nc3[nH]ncc23)n[nH]1 | 5.5 | 6860 | 12800 | 5620 | 611 | – | –
Fc1ccc(-c2cc(Nc3nc(NCc4ccc(F)cc4F)nc4c3cnn4C3CCOCC3)n[nH]2)cc1 | 1290 | – | – | – | – | – | –
C=C[C@H]1C[N@@]2CC[C@H]1C[C@@H]2[C@@H](O)c1ccnc2ccc(OC)cc12 [QUINIDINE] | – | – | – | – | – | – | 95.9
Cc1cc(Nc2nc(NCc3ccc(Cl)cc3)nc3[nH]ncc23)n[nH]1 | 0.3 | 7500 | 11700 | 860 | 515 | – | –
Cc1cc(Nc2nc(NCc3ccccc3)nc3[nH]ncc23)n[nH]1 | 21.2 | – | – | – | 1960 | – | –
Cc1cc(Nc2nc(NCc3ccc(Cl)cc3)nc3c2cnn3C2CCNCC2)n[nH]1 | 7 | 3220 | 2350 | 790 | – | – | –
Cc1cc(Nc2nc(NCc3ccc(C#N)cc3)nc3[nH]ncc23)n[nH]1 | 10.5 | 1360 | 12100 | 6060 | – | – | –
Fc1ccc(CNc2nc(Nc3cc(-c4ccccc4)[nH]n3)c3cnn(C4CCOCC4)c3n2)c(F)c1 | 969 | – | – | – | – | – | –
Fc1ccc(CNc2nc(Nc3n[nH]c4ccc(Cl)cc34)c3cnn(C4CCOCC4)c3n2)c(F)c1 | 3180 | – | – | – | – | – | –
Cc1cc(Nc2nc(NCc3ccc(F)cc3F)nc3c2cnn3C)n[nH]1 | 17.5 | – | – | – | – | – | –
Cc1cc(Nc2nc(NCc3ccc(F)cc3F)nc3c2cnn3C2CCCCC2)n[nH]1 | 7.9 | 2960 | 6230 | 810 | – | – | –

From ChEMBL document CHEMBL5113403, “Design, synthesis, and biological evaluation of novel pyrazolo [3,4-d]pyrimidine derivatives as potent PLK4 inhibitors for the treatment of TRIM37-amplified breast cancer” (Eur J Med Chem, 2022)
